Results from patent publication US7395112B2, “Method and apparatus for treating tumors using low strength electric fields” (priority 2002, dated 2008).

System: B16-F10.9 melanoma
Assay: LEFCT-EC in mice bearing subcutaneous B16-F10.9 melanoma
Assay type: in vivo, C57BL/6 mice
Conditions: for Tumor size (mean ± standard error): 7 days after treatment
Experimental: Animals: C57BL/6 male mice were obtained from the breeding colony of Tel-Aviv University, Israel. Mice were used at 8-12 weeks of age. Animal care and experimentation was carried out in accordance with Tel-Aviv University guidelines.
Melanoma tumor cell line: The highly metastatic, poorly immunogenic B16-F10.9 (F10.9) subclone of the B16 melanoma cell line was used to generate melanoma tumors in mice (Eisenbach L. et al., 1984. Int J Cancer 34:567). Cells were maintained in DMEM supplemented with 100 U/ml penicillin, 100 μg/ml streptomycin, 4 mM glutamine, 1 mM sodium pyruvate, 1% non-essential amino acids and 10% heat-inactivated fetal calf serum (FCS); and were cultured at 37° C. in a humidified incubator in an atmosphere of 7% carbon dioxide and 93% air.
Tumor generation protocol: F10.9 tumors were induced in C57BL/6 mice by subcutaneous injection of 2×10^5 F10.9 cells. Mice were subjected to experimental treatments once tumors reached 5 mm in diameter (about 60-70 mm^3). Chemotherapeutic drugs: The following chemotherapeutic drugs used were: cis-platinum (II) diamminedichloride (cisplatin; #P-4394, Sigma, Israel), dissolved in PBS for injections; Taxol (Mead Johnson Oncology Products, A Bristol-Myers Squibb, USA), obtained as a sterile nonpyrogenic solution containing 6 mg/ml paclitaxel, 527 mg/ml of purified Cremophor EL (polyoxyethylated castor oil) and 5-FU (Abic, Israel).
Low-strength electric field enhanced cancer therapy protocol: Mice were subjected to a single treatment of LEFCT-EC, once tumors reached 5 mm in diameter (11-17 days following tumor cell inoculation). Volumes of up to 100 μl of chemotherapeutic agents were injected into tumor loci, and exposures to electric fields were carried out 3-4 min following intratumoral injection of chemotherapeutic agents. To expose tumors to electric fields, stainless steel electrode needles (Karlsbader insect pins No 0. BioQuip Products, USA) soldered at their brassy ends with thin isolated copper wires were used. Electrodes were inserted to a depth of about 7 mm percutaneously into and in the immediate vicinity of the tumor; one cathode needle in the center of the tumor and three peripheral anodes, at a distance of about 5 mm from the cathode. The needles were connected to an electric pulse generator (Grass S48 Stimulator, USA). The field strength applied was about 40 V/cm; the repetition frequency, 500 Hz; and the pulse width, 180 μs. All mice were anesthetized prior to LEF treatment.
Statistical analysis: Statistical analysis of survival times (Kaplan-Meir test), survival comparisons between groups (Mantel-Cox test) and tumor volume differences between groups (Kolmogorov-Smirnov test) were performed using StatSoft Statistica statistical software. The 10-15% mortality rate in the 5 days following LEF or LEF-chemotherapy was considered as treatment-caused, therefore such cases of mortality were excluded.
Tumor volume determination: performed as described above in Example 1 of the Examples section.

## bleomycin
LEF-CT (drug + LEF), cisplatin 4 mg/kg, bleomycin 8 U/kg, 5-FU 150 mg/kg, taxol 20 mg/kg
  Tumor size (mean ± standard error): 573 ± 138 mm^3
LEF-chemotherapy: intratumoral drug + LEF about 40 V/cm 12 min, 120 days (cisplatin) or 180 days (taxol, bleomycin) after inoculation
  mean survival time (MST): 48 days
LEF-chemotherapy, 180 days after tumor inoculation
  cure rate / animals alive and free of visible tumor: 8.2%
Chemotherapy alone, intratumoral, no LEF
  mean survival time (MST): 34.3 days
Intratumoral drug injection alone, same doses
  Tumor size (mean ± standard error): 2456 ± 220 mm^3
Pooled statement for cisplatin, taxol or bleomycin
  LEFCT-EC treated mice that died two months and later after treatment with pulmonary metastatic foci, free of primary tumor: About 10%
Route comparison: bleomycin 8 U/kg intraperitoneally + LEF
  MST: 34.6 days
Route comparison: bleomycin 8 U/kg intratumorally + LEF
  MST: 46.6 days
Route comparison: bleomycin 8 U/kg intratumorally + LEF, 180 days after tumor inoculation
  animals alive: 5%
